# pIC50: −log10 of the molar value.
# Target: T1, GMDS (GDP-mannose 4,6-dehydratase) (Homo sapiens, UniProt O60547)
# T1 construct: recombinant human GMDS with a His-tag (Addgene plasmid # 39152)
# T1 sequence (O60547 2-372): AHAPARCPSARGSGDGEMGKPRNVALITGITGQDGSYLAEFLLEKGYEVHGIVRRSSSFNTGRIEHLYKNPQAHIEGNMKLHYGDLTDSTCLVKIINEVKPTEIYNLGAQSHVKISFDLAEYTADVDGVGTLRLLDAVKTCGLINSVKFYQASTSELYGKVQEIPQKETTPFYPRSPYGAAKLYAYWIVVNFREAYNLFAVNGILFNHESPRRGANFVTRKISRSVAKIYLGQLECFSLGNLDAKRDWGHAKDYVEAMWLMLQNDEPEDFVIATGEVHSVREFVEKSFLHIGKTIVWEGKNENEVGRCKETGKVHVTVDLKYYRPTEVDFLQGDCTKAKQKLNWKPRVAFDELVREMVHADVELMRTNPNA
# Assay: LC-MS and 1H NMR assay of GDP-mannose conversion by recombinant GMDS ([…] enzyme, […] GDP-mannose)
# Assay type: biochemical
smiles,measurement,value
"Nc1nc2c(ncn2[C@@H]2O[C@H](COP(=O)(O)OP(=O)(O)O[C@H]3O[C@H](C(F)F)[C@@H](O)[C@H](O)[C@@H]3O)[C@@H](O)[C@H]2O)c(=O)[nH]1 [compound 25, GDP-D-Rha6F2]",pIC50,3.64

# Source: publication PMC8640046, “Fluorinated rhamnosides inhibit cellular fucosylation” (Nature Communications, 2021)
